Laboratory results from US20030229451A1, “Methods and systems for analyzing complex biological systems” (priority 2001, published 2003).

Legend:
[1] = system: Arabidopsis thaliana plants; experiment: SOA1 phenotypic analysis of herbicide-treated Arabidopsis (MIC, Tmic, leaf traits); assay type: in vivo; conditions: for leafCurling Dev. / leafTwisting Dev. / leafWidth Dev. / matureLeafAnthocyanins Dev. / matureLeafChlorosis Dev. / matureLeafNecrosis Dev. / newLeafAnthocyanins Dev. / newLeafChlorosis Dev. / newLeafNecrosis Dev. / pointedLeaves Dev.: numeric value standardized to mock treated; for tMic Dev.: time to full range of symptoms at MIC, coded; for characteristic morphological symptoms: herbicide-treated Arabidopsis
[2] = system: Arabidopsis thaliana; experiment: MOA1 biochemical (metabolite) profiling by LC-MS and GC-MS

Row | Structure (SMILES) | leafCurling Dev. [1] | leafTwisting Dev. [1] | leafWidth Dev. [1] | matureLeafAnthocyanins Dev. [1] | matureLeafChlorosis Dev. [1] | matureLeafNecrosis Dev. [1] | newLeafAnthocyanins Dev. [1] | newLeafChlorosis Dev. [1] | newLeafNecrosis Dev. [1] | pointedLeaves Dev. [1] | tMic Dev. [1] | Number of Metabolites Changed: (unknown #) ([2]; 20 min, p < 0.05) | Number of Metabolites Changed: Total # ([2]; 20 min, p < 0.05) | Number of Metabolites Changed: (unknown #) ([2]; 20 min, p < 0.11) | Number of Metabolites Changed: Total # ([2]; 20 min, p < 0.11) | Number of Metabolites Changed: (unknown #) ([2]; 1 hr, p < 0.05) | Number of Metabolites Changed: Total # ([2]; 1 hr, p < 0.05) | Number of Metabolites Changed: (unknown #) ([2]; 1 hr, p < 0.11) | Number of Metabolites Changed: Total # ([2]; 1 hr, p < 0.11) | characteristic morphological symptoms [1] | further results
1 | O=C(O)COc1ccc(Cl)cc1Cl [2,4-D] | 1 | 2 | −1 | 1 | 2 | 0 | 0 | 1 | 0 | 0 | 2 | 2 | 3 | 8 | 13 | 3 | 7 | 15 | 25 | – | Symptom Class ([1]; three-week-old Arabidopsis, phenotype class (FIG. 12)): 5
2 | O=C(O)c1cc(Oc2ccc(C(F)(F)F)cc2Cl)ccc1[N+](=O)[O-] [Acifluorfen] | 1 | 0 | 0 | 0 | 0 | 1 | 0 | 0 | 3 | 0 | 1 | 11 | 17 | 20 | 32 | 13 | 19 | 22 | 31 | Necrotic leaf flecks | –
3 | Nc1nc[nH]n1 [Amitrole] | −1 | 0 | 2 | 0 | 3 | 0 | 0 | 4 | 0 | 0 | 2 | 6 | 9 | 13 | 17 | 8 | 14 | 20 | 32 | leaf bleaching and leaf enlargement | –
4 | CCNc1nc(Cl)nc(NC(C)C)n1 [Atrazine] | 1 | 0 | −1 | 0 | 1 | 4 | 0 | 1 | 4 | 1 | 1 | 4 (4) | 4 (4) | 8 | 11 | 8 | 17 | 24 | 49 | rapid and widespread leaf necrosis | –
5 | O=C(O)Cn1c(=O)sc2cccc(Cl)c21 [Benazolin] | 2 | 2 | −2 | 0 | 0 | 0 | 0 | 0 | 0 | 0 | 2 | – | – | – | – | – | – | – | – | – | –
6 | CC(C)N1C(=O)c2ccccc2NS1(=O)=O [Bentazon] | 2 | 0 | −2 | 0 | 2 | 4 | 0 | 2 | 4 | 1 | 1 | 3 | 9 | 6 | 10 | 9 | 11 | 14 | 19 | rapid and widespread leaf necrosis | –
7 | COC(=O)c1cc(Oc2ccc(Cl)cc2Cl)ccc1[N+](=O)[O-] [Bifenox] | 1 | 0 | 0 | 0 | 0 | 1 | 0 | 0 | 3 | 0 | 1 | – | – | – | – | – | – | – | – | Necrotic leaf flecks | –
8 | CCSC(=O)N(CC(C)C)CC(C)C [Butylate] | – | – | – | – | – | – | – | – | – | – | – | 10 | 17 | 21 | 33 | 12 | 18 | 22 | 31 | – | –
9 | CC(C)OC(=O)Nc1cccc(Cl)c1 [Chloropropham] | – | – | – | – | – | – | – | – | – | – | – | 8 | 12 | 10 | 17 | 5 | 12 | 10 | 20 | – | –
10 | COc1c(Cl)ccc(Cl)c1C(=O)O [Dicamba] | 2 | 2 | −2 | 0 | 2 | 0 | 0 | 0 | 0 | 0 | 2 | – | – | – | – | – | – | – | – | – | –
11 | c1cc[n+]2c(c1)-c1cccc[n+]1CC2 [Diquat] | 2 | 0 | −2 | 0 | 1 | 4 | 0 | 1 | 4 | 1 | 2 | – | – | – | – | – | – | – | – | rapid and widespread leaf necrosis | –
12 | CN(C)C(=O)Nc1ccc(Cl)c(Cl)c1 [Diuron] | 1 | 0 | −2 | 0 | 2 | 4 | 0 | 2 | 4 | 1 | 1 | – | – | – | – | – | – | – | – | rapid and widespread leaf necrosis | –
13 | CC(C)C1(C)N=C(c2ncccc2C(=O)O)NC1=O (stereo not drawn) [Imazapyr] | 0 | 0 | 0 | 2 | 0 | 0 | 0 | 2 | 0 | 0 | 2 | 2 | 5 | 3 | 9 | 6 | 8 | 10 | 14 | anthocyanin accumulation in the older leaves accompanied by chlorosis of the newly emerging leaves | –
14 | CCc1cnc(C2=NC(C)(C(C)C)C(=O)N2)c(C(=O)O)c1 (stereo not drawn) [Imazethapyr] | 1 | 1 | 0 | 3 | 0 | 0 | 0 | 2 | 0 | 0 | 2 | – | – | – | – | – | – | – | – | anthocyanin accumulation in the older leaves accompanied by chlorosis of the newly emerging leaves | –
15 | CCC(C)(CC)c1cc(NC(=O)c2c(OC)cccc2OC)on1 [Isoxaben] | – | – | – | – | – | – | – | – | – | – | – | 12 | 26 | 21 | 45 | 16 | 25 | 33 | 55 | – | –
16 | CSc1nnc(C(C)(C)C)c(=O)n1N [Metribuzin] | 1 | 0 | −2 | 0 | 2 | 4 | 0 | 2 | 4 | 1 | 1 | – | – | – | – | – | – | – | – | rapid and widespread leaf necrosis | –
17 | CNc1cnn(-c2cccc(C(F)(F)F)c2)c(=O)c1Cl [Norflurazon] | – | – | – | – | – | – | – | – | – | – | – | 27 | 38 | 36 | 55 | 5 | 6 | 8 | 12 | – | –
